Measurements reported in the OPERA property sets (Mansouri et al. 2018).

Details: not given

First: CCC/C=C/C=O
Second: CCCC=CC(=O)O
The boiling point of the first is lower: 146 °C for the first, 216 °C for the second.

First: CN(C)c1ccc(Br)cc1
Second: COc1ccc(C(=O)O)cc1
The boiling point of the first is lower: 264 °C for the first, 276 °C for the second.

Compared with `COC(C)CCO` (configuration not stated), `CCCC(C)Br` (configuration not stated) is lower in boiling point: 157 °C for the first, 117 °C for the second.

Compared with `CCCCC(CC)CC`, `CCCC(O)(CC)CC` is higher in boiling point: 143 °C for the first, 160 °C for the second.

Compared with `CCC(O)C(C)(C)C` (configuration not stated), `CCC(C)(CC)CC(C)C` is higher in boiling point: 135 °C for the first, 161 °C for the second.

First: FC(F)(F)C(F)(C(F)(F)F)C(F)(F)F
Second: FC(F)(F)C(F)(F)C(F)(F)C(F)(F)C(F)(F)C(F)(F)C(F)(F)F
The boiling point of the first is lower: 0 °C for the first, 82.5 °C for the second.

First: Ic1ccccc1
Second: Cc1ccccc1CC(C)C
The boiling point of the first is lower: 188 °C for the first, 196 °C for the second.

Compared with `CC1(O)CCCCCC1`, `CC(C)=CCC/C(C)=C/CO` is higher in boiling point: 184 °C for the first, 228 °C for the second.

Going from `CC(C)CC(=O)CC(C)C` to `C=CC(=O)OCCCC`, the boiling point falls from 169 °C to 145 °C.

Going from `COc1c(F)c(F)c(F)c(F)c1F` to `O=[N+]([O-])c1cccc(Cl)c1`, the boiling point rises from 138 °C to 236 °C.

First: ClCCC(Cl)Cl
Second: CN(C)CCCCN(C)C
The boiling point of the first is lower: 146 °C for the first, 168 °C for the second.

First: CNc1ccc([N+](=O)[O-])cc1
Second: O=[N+]([O-])c1cccc(Cl)c1
The melting point of the first is higher: 152 °C for the first, 46 °C for the second.

First: CN(C)c1ccc(Br)cc1
Second: CN(N=O)c1ccccc1
The melting point of the first is higher: 55 °C for the first, 14.7 °C for the second.

Compared with `CCCC=CC(=O)O`, `C=CC(=O)OCCCC` is lower in melting point: 36.5 °C for the first, -64.6 °C for the second.

Going from `c1ccc2cc3cc4ccccc4cc3cc2c1` to `c1ccc(CSSCc2ccccc2)cc1`, the melting point falls from 357 °C to 71.5 °C.

First: CCCC(C)Br (configuration not stated)
Second: CCCCC(CC)CC
The melting point of the first is higher: -95.5 °C for the first, -115 °C for the second.

Compared with `NS(=O)(=O)c1ccc(SCCCCO)cc1`, `COc1ccc(C(=O)O)cc1` is higher in melting point: 101 °C for the first, 185 °C for the second.

Compared with `CC(C)CCC[C@@H](C)[C@H]1CC[C@H]2[C@@H]3CCC4=C[C@@H](O)CC[C@]4(C)[C@H]3CC[C@]12C`, `CCCCC(=O)O[C@]1(C(=O)CO)CC[C@H]2[C@@H]3CCC4=CC(=O)C=C[C@]4(C)[C@H]3[C@@H](O)C[C@@]21C` is higher in melting point: 132 °C for the first, 212 °C for the second.

First: CCC(O)C(C)(C)C (configuration not stated)
Second: CC(C)CC(=O)CC(C)C
The melting point of the first is higher: -5 °C for the first, -41.5 °C for the second.

First: CC(=O)CC(=O)Nc1ccccc1C
Second: Cc1ccccc1CC(C)C
The melting point of the first is higher: 105 °C for the first, -73.3 °C for the second.

Going from `FC(F)(F)C(F)(F)C(F)(F)C(F)(F)C(F)(F)C(F)(F)C(F)(F)F` to `COc1c(F)c(F)c(F)c(F)c1F`, the melting point rises from -78 °C to -37 °C.

Going from `CCC(=O)c1ccc(O)cc1O` to `O=Cc1ccc(O)c(O)c1O`, the melting point rises from 99 °C to 160 °C.

Compared with `Cc1ccc(C(=O)O)o1`, `O=C(O)c1cccc(Cl)c1[N+](=O)[O-]` is higher in melting point: 110 °C for the first, 238 °C for the second.

Going from `CC(C)(C)OOC(=O)c1ccccc1` to `CCN(C)C(=O)COC(=O)c1ccccc1`, the melting point rises from 8 °C to 20 °C.

First: Ic1ccccc1
Second: Cc1nc(=O)c2ccccc2[nH]1
The melting point of the first is lower: -31.3 °C for the first, 232 °C for the second.

Going from `O=S(=O)(O)CCCNC1CCCCC1` to `CCCCC(C(N)=O)n1nnc2ccccc21` (configuration not stated), the melting point falls from 302 °C to 118 °C.

First: ClCCC(Cl)Cl
Second: CCN(CC)CCOc1ccc(C(O)(Cc2ccc(Cl)cc2)c2ccc(C)cc2)cc1 (configuration not stated)
The melting point of the first is lower: -59 °C for the first, 103 °C for the second.

Molecule `O=C1NC(=O)c2cc([N+](=O)[O-])ccc21` has a melting point of 201 °C.

Going from `c1ccc2cc3cc4ccccc4cc3cc2c1` to `Ic1ccccc1`, the log10 Koc (L/kg) falls from 5.81 to 3.1.

In the case of `O=[N+]([O-])c1cc(Cl)c(Cl)c(Cl)c1Cl`, the log10 Koc (L/kg) is reported as 4.23.

First: c1ccc2cc3cc4ccccc4cc3cc2c1
Second: Ic1ccccc1
The log10 vapour pressure (mmHg) of the first is lower: -8.6 for the first, 0.0253 for the second.

Going from `CCCC(C)Br` (configuration not stated) to `CCC=CC(C)C`, the log10 vapour pressure (mmHg) rises from 1.33 to 1.88.

Going from `FC(F)(F)C(F)(F)C(F)(F)C(F)(F)C(F)(F)C(F)(F)C(F)(F)F` to `O=[N+]([O-])c1cccc(Cl)c1`, the log10 vapour pressure (mmHg) falls from 1.88 to -1.01.

First: CC(C)CC(=O)CC(C)C
Second: C=CC(=O)OCCCC
The log10 vapour pressure (mmHg) of the first is lower: 0.217 for the first, 0.737 for the second.

In the case of `CC(C)=CCC/C(C)=C/CO`, the log10 vapour pressure (mmHg) is reported as -1.52.

For `COC(C)CCO` (configuration not stated), the ready biodegradability was “readily biodegradable”.
For `COc1ccc(C(=O)O)cc1`, the ready biodegradability was “readily biodegradable”.
With `CCCCCCCCCCCCCCCC(=O)N(CCO)CCO` the ready biodegradability was “readily biodegradable”.
With `CC(=O)CC(=O)Nc1ccccc1C` the ready biodegradability was “readily biodegradable”.
With `CC(C)(C)OOC(=O)c1ccccc1` the ready biodegradability was “not readily biodegradable”.
For `CNC(=S)S`, the ready biodegradability was “not readily biodegradable”.
For `CC(C)=CCC/C(C)=C/CO`, the ready biodegradability was “readily biodegradable”.
With `O=[N+]([O-])c1cccc(Cl)c1` the ready biodegradability was “not readily biodegradable”.
For `C=CC(=O)OCCCC`, the ready biodegradability was “readily biodegradable”.
For `CC(C)(C)c1cc(Cn2c(=O)n(Cc3cc(C(C)(C)C)c(O)c(C(C)(C)C)c3)c(=O)n(Cc3cc(C(C)(C)C)c(O)c(C(C)(C)C)c3)c2=O)cc(C(C)(C)C)c1O`, the ready biodegradability was “not readily biodegradable”.

For `O=[N+]([O-])c1cccc(Cl)c1`, the log10 Henry constant (atm·m³/mol) was -4.87.

Same assay, conditions: fish

`O=[N+]([O-])c1cc(Cl)c(Cl)c(Cl)c1Cl` and `O=[N+]([O-])c1cccc(Cl)c1` are within 0.2 log units of each other in log10 BCF: 1.9 for the first, 1.89 for the second.

Compared with `O=[N+]([O-])c1cc(Cl)c(Cl)c(Cl)c1Cl`, `CCCCC(C)CCCC(C)C` (configuration not stated) is higher in log10 biotransformation half-life (days): -0.69 for the first, 0.32 for the second.
